Laboratory results reported in ChEMBL document CHEMBL1201862, “PubChem BioAssay data set” (2004).
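Values below derive from 48-hour exposures of cells grown in 96-well plates, with endpoints linearly interpolated between the two concentrations bracketing the appropriate inhibition level. Here, GI50 denotes the concentration required for 50% inhibition of growth.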 Calls of active or inactive are those of the source. Cut-off read from the data, not from the text of the source: active = GI50 up to about 1.1 µM and inactive = higher.

Key:
Assay in all cases: NCI tumour cell line growth inhibition, 48 h
[1] = test system: M14
[2] = test system: OVCAR-3
[3] = test system: SR
[4] = test system: A549
[5] = test system: HT-29
[6] = test system: NCI-H226
[7] = test system: SNB-19
[8] = test system: PC-3
[9] = test system: LOX IMVI
[10] = test system: UO-31
[11] = test system: OVCAR-5
[12] = test system: SK-MEL-5
[13] = test system: Malme-3M
[14] = test system: UACC-62
[15] = test system: A498
[16] = test system: SF-295
[17] = test system: SK-OV-3
[18] = test system: NCI-H23
[19] = test system: SW-620
[20] = test system: COLO 205
[21] = test system: SK-MEL-2
[22] = test system: OVCAR-4
[23] = test system: SK-MEL-28
[24] = test system: TK-10
[25] = test system: SN12C
[26] = test system: HOP-92
[27] = test system: OVCAR-8
[28] = test system: NCI-H460
[29] = test system: MDA-N
[30] = test system: Hs-578T
[31] = test system: MCF7
[32] = test system: MDA-MB-231
[33] = test system: CAKI-1
[34] = test system: BT-549
[35] = test system: RPMI-8226
[36] = test system: KM12
[37] = test system: HL-60
[38] = test system: IGROV-1
[39] = test system: SF-268
[40] = test system: K562
[41] = test system: CCRF-CEM
[42] = test system: DU-145
[43] = test system: 786-0
[44] = test system: EKVX
[45] = test system: ACHN
[46] = test system: UACC-257
[47] = test system: MOLT-4
[48] = test system: NCI-H522
[49] = test system: T47D
[50] = test system: SNB-75
[51] = test system: NCI/ADR-RES
[52] = test system: RXF 393
[53] = test system: SF-539
[54] = test system: HCT-116
[55] = test system: HCT-15
[56] = test system: MDA-MB-435
[57] = test system: U-251
[58] = test system: HCC 2998
[59] = test system: HOP-62
[60] = test system: LXFL 529
[61] = test system: KM-20L2
[62] = test system: SNB-78
[63] = test system: DMS-114
[64] = test system: M19-MEL

Measured: GI50

Oc1nc2cc(Cl)ccc2nc1/C(=N\Nc1ccccc1)C(O)c1ccc2c(c1)OCO2 (stereo not drawn)
> 100 µM: [55]
inactive: [1] > 100 µM | [2] > 100 µM | [3] > 100 µM | [4] > 100 µM | [5] > 100 µM | [6] > 100 µM | [7] > 100 µM | [8] > 100 µM | [9] > 100 µM | [10] > 100 µM | [11] > 100 µM | [12] > 100 µM | [13] > 100 µM | [14] > 100 µM | [15] > 100 µM | [16] > 100 µM | [17] > 100 µM | [18] > 100 µM | [19] > 100 µM | [20] > 100 µM | [21] > 100 µM | [22] > 100 µM | [23] > 100 µM | [24] > 100 µM | [25] > 100 µM | [26] > 100 µM | [27] > 100 µM | [28] > 100 µM | [29] > 100 µM | [30] > 100 µM | [31] > 100 µM | [32] > 100 µM | [33] > 100 µM | [34] > 100 µM | [35] > 100 µM | [36] > 100 µM | [37] > 100 µM | [38] > 100 µM | [39] > 100 µM | [40] > 100 µM | [41] > 100 µM | [42] > 100 µM | [43] > 100 µM | [44] > 100 µM | [45] > 100 µM | [46] > 100 µM | [47] > 100 µM | [48] > 100 µM | [49] 72.8 µM | [50] > 100 µM | [51] > 100 µM | [52] > 100 µM | [53] > 100 µM | [54] > 100 µM | [56] > 100 µM | [57] > 100 µM | [58] > 100 µM | [59] > 100 µM

COc1ccc2c(c1)CC[C@@H]1C2CC[C@](C)(C#N)C1CC#N (stereo partly drawn)
inactive: [1] > 100 µM | [2] > 100 µM | [3] > 100 µM | [5] > 100 µM | [7] > 100 µM | [60] > 100 µM | [61] > 100 µM | [10] > 100 µM | [11] > 100 µM | [62] > 100 µM | [13] > 100 µM | [14] > 100 µM | [15] > 100 µM | [16] > 100 µM | [17] > 100 µM | [18] > 100 µM | [20] > 100 µM | [22] > 100 µM | [23] > 100 µM | [26] > 100 µM | [63] > 100 µM | [28] > 100 µM | [35] > 100 µM | [64] > 100 µM | [36] > 100 µM | [38] > 100 µM | [39] > 100 µM | [40] > 100 µM | [41] > 100 µM | [43] > 100 µM | [45] > 100 µM | [46] > 100 µM | [47] > 100 µM | [48] > 100 µM | [50] > 100 µM | [52] > 100 µM | [54] > 100 µM | [57] > 100 µM | [59] > 100 µM
